Experimental data: publication PMC5706701, “Development of a homogenous high-throughput assay for inositol hexakisphosphate kinase 1 activity” (PLoS ONE, 2017)
Counter-ions that a name gives are not always drawn. Like-named read-outs stand apart in the source and are kept apart here.

Molecular target: T1, Human IP6K1 (Homo sapiens, UniProt Q92551)
T1 construct: GST (N, cleaved yes); made in house; host or cells: C43 E. coli, pGEX-6P-2
Assay: IP6K1 high-throughput screen of the Sigma LOPAC (ADP-Glo Max, single point);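 also: final compound concentration 10µM in 5% DMSO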
Assay type: biochemical

[1] = LOPAC single-point screen, ADP-Glo Max raw signal per well
[2] = LOPAC single-point screen, Z-score from raw signal with plate average and StDev
[3] = LOPAC single-point screen, Z-score against plate average and StDev
[4] = LOPAC single-point screen, ADP-Glo Max luminescence raw signal per well
[5] = LOPAC single-point screen, Z-score relative to plate average and StDev
[6] = Sigma LOPAC single-point screen, ADP-Glo Max raw signal per well
[7] = Sigma LOPAC single-point screen, Z-score from plate average and StDev
[8] = LOPAC single-point screen, Z-score from plate average and StDev

T1 sequence (Q92551 whole entry): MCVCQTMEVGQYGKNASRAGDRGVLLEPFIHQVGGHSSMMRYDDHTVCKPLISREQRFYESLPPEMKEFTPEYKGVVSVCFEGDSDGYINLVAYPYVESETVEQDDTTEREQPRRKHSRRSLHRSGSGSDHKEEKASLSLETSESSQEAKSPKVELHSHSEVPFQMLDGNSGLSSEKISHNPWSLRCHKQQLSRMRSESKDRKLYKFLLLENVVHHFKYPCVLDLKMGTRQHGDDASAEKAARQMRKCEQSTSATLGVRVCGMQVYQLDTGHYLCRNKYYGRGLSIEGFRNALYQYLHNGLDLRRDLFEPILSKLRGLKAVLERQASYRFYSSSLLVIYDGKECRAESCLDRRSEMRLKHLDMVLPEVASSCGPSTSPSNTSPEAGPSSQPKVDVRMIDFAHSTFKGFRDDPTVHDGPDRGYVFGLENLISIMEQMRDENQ

CN/C(=N\c1ccc(C2=NNC(=O)CC2C)cc1)NC#N (stereo not shown) [SKF 94836]
Raw Signal [1]: 55520
Z-score [2]: -0.09788

O=C(O)/C=C\C(=O)O.O=C(O)/C=C\C(=O)O.c1cc(CN2CCCCC2)cc(OCCCNc2nc3ccccc3s2)c1 [SKF 95282 dimaleate]
Raw Signal [1]: 54088
Z-score [2]: -0.3761

COc1ccc(CCCOC(Cn2ccnc2)c2ccc(OC)cc2)cc1 (stereo not shown) [SKF 96365]
Raw Signal [1]: 56420
Z-score [3]: 0.07697

CP(=O)(O)CCCN.Cl [SKF 97541 hydrochloride]
Raw Signal [1]: 57179
Z-score [2]: -0.1293

CCCC(C(=O)OCCN(CC)CC)(c1ccccc1)c1ccccc1.Cl [SKF-525A hydrochloride]
Raw Signal [4]: 51241
Z-score [5]: -0.5297

C=CCN1C[C@H](C)N([C@H](c2ccc(C(=O)N(CC)CC)cc2)c2cccc(OC)c2)C[C@H]1C [SNC80]
Raw Signal [1]: 54916
Z-score [2]: -0.2152

Oc1c2ccccc2c2c3c(cccc13)N=N2 [SP600125]
Raw Signal [6]: 57057
Z-score [7]: 0.3838

Nc1ncnc2c1ncn2C1CCCO1 (stereo not shown) [SQ 22536]
Raw Signal [4]: 63004
Z-score [8]: 1.356

O=C(O)c1ccccc1Nc1cccc(OCc2ccc3ccccc3n2)c1 [SR 2640]
Raw Signal [4]: 52929
Z-score [5]: -0.6013

Cl.NC1CCN(c2cccc(Cl)n2)CC1 [SR 57227A]
Raw Signal [4]: 53376
Z-score [5]: -0.5144

CCc1ccccc1OC[C@@H](O)CN[C@H]1CCCc2ccccc21.O=C(O)C(=O)O [SR 59230A oxalate]
Raw Signal [1]: 55204
Z-score [2]: -0.1593

Br.COc1ccc(-c2ccc(=N)n(CCCC(=O)O)n2)cc1 [SR-95531]
Raw Signal: 59972
Z-score: 0.7671

CN(C)c1ccc(/C=C2\C(=O)Nc3ccccc32)cc1 [SU 4312]
Raw Signal [6]: 60273
Z-score [7]: 0.8255

CN(C)S(=O)(=O)c1ccc2c(c1)/C(=C/c1cc3c([nH]1)CCCC3)C(=O)N2 [SU 6656]
Raw Signal [1]: 57564
Z-score [3]: 0.2992

CC(C)(C)NCC(O)c1ccc(O)c(CO)c1 (stereo not shown) [Salbutamol]
Z-score [2]: -0.2712

OCc1cc(C(O)CNCCCCCCOCCCCc2ccccc2)ccc1O (stereo not shown) [Salmeterol]
Raw Signal [4]: 52718
Z-score [5]: -0.6423

CCCCCCCCCC[Si](C)(C)CCC(=O)NC(Cc1ccc(C)cc1)c1ccccc1 (stereo not shown) [Sandoz 58-035]
Raw Signal [1]: 56427
Z-score [2]: -0.2617

C[n+]1cc2c3c(ccc2c2ccc4cc5c(cc4c21)OCO5)OCO3 [Sanguinarine chloride]
Raw Signal [4]: 52602
Z-score [5]: -0.6648

C[Se]C[C@H](N)C(=O)O.Cl [Se-(methyl)selenocysteine hydrochloride]
Raw Signal [1]: 55528
Z-score [3]: 0.1906

CC(C)[C@@H]1NC(=O)[C@H](CCCCN)NC(=O)[C@@H](Cc2c[nH]c3ccccc23)NC(=O)[C@H](Cc2ccc(O)cc2)NC(=O)[C@H](C)N(C)C(=O)[C@H](Cc2ccccc2)NC1=O [Seglitide]
Raw Signal [1]: 55030
Z-score [2]: -0.1931

Cl.NNC(N)=O [Semicarbazide hydrochloride]
Raw Signal [1]: 55828
Z-score [3]: -0.03804

C[C@H](O)C(=O)C1=Nc2c(nc(N)[nH]c2=O)NC1 [Sepiapterin]
Raw Signal [6]: 58753
Z-score [7]: 0.5302

NCCc1c[nH]c2ccc(O)cc12 [Serotonin hydrochloride]
Raw Signal [6]: 60327
Z-score [7]: 1.048

CC(C)COC(=O)OCN1C(=O)CN(CCN2CC(=O)N(COC(=O)OCC(C)C)C(=O)C2)CC1=O [Sobuzoxane]
Raw Signal [1]: 54088
Z-score [2]: -0.3761

NC(=O)C(=O)O [Sodium Oxamate]
Raw Signal [1]: 56283
Z-score [3]: 0.3175

C[C@H](CCC(=O)NCCS(=O)(=O)O)[C@H]1CC[C@H]2[C@@H]3[C@H](O)C[C@@H]4C[C@H](O)CC[C@]4(C)[C@H]3C[C@H](O)[C@]12C [Sodium Taurocholate]
Raw Signal: 58351
Z-score: 0.07713

NCCCCNCCCN [Spermidine trihydrochloride]
Raw Signal [6]: 60576
Z-score [7]: 0.8844

NCCCNCCCCNCCCN [Spermine tetrahydrochloride]
Raw Signal [4]: 52988
Z-score [5]: -0.5898

CCCCCCCCCCCCC/C=C/[C@@H](O)[C@@H](N)CO [Sphingosine]
Raw Signal [4]: 64012
Z-score [8]: 1.552

O=C(CCCN1CCC2(CC1)C(=O)NCN2c1ccccc1)c1ccc(F)cc1 [Spiperone hydrochloride]
Raw Signal [4]: 52620
Z-score [5]: -0.6613

CC(=O)S[C@@H]1CC2=CC(=O)CC[C@]2(C)[C@H]2CC[C@@]3(C)[C@@H](CC[C@@]34CCC(=O)O4)[C@H]12 [Spironolactone]
Raw Signal [4]: 50910
Z-score [5]: -0.9935

O=C1NCN(c2ccccc2)C12CCN(CC1COc3ccccc3O1)CC2 (stereo not shown) [Spiroxatrine]
Raw Signal [1]: 55965
Z-score [3]: -0.01142

C[N+](C)(C)CCOC(=O)CCC(=O)OCC[N+](C)(C)C [Succinylcholine chloride]
Raw Signal [4]: 51489
Z-score [5]: -0.881

Nc1ccc(S(=O)(=O)Nc2ccnn2-c2ccccc2)cc1 [Sulfaphenazole]
Raw Signal [1]: 54328
Z-score [2]: -0.3295

CC1=C(CC(=O)O)c2cc(F)ccc2/C1=C\c1ccc(S(C)(=O)=O)cc1 [Sulindac sulfone]
Raw Signal [1]: 56423
Z-score [3]: 0.07756

CC1=C(CC(=O)O)c2cc(F)ccc2/C1=C\c1ccc([S+](C)[O-])cc1 (stereo not shown) [Sulindac]
Raw Signal [4]: 51494
Z-score [5]: -0.8801

Cc1ccc(C(=O)Nc2ccc(S(=O)(=O)O)c3cc(S(=O)(=O)O)cc(S(=O)(=O)O)c23)cc1NC(=O)c1cccc(NC(=O)Nc2cccc(C(=O)Nc3cc(C(=O)Nc4ccc(S(=O)(=O)O)c5cc(S(=O)(=O)O)cc(S(=O)(=O)O)c45)ccc3C)c2)c1 [Suramin hexasodium]
Raw Signal [4]: 10286
Z-score [5]: -8.886

COC(=O)c1c(-c2cc(OC)c(OC)c(OC)c2)c2ccnc(OCc3ncccn3)c2c(=O)n1Cc1ccnc(C)c1 [T-0156]
Raw Signal [4]: 53574
Z-score [5]: -0.476

COC(=O)c1c(-c2cc(OC)c(OC)c(OC)c2)c2ccc(OCc3ccccn3)cc2c(=O)n1-c1ccc(N)cc1.O=S(=O)(O)O [T-1032]
Raw Signal [1]: 55393
Z-score [2]: -0.1226

Clc1cnc(Oc2ccc(Oc3ncc(Cl)cc3Cl)cc2)c(Cl)c1 [TCPOBOP]
Raw Signal [1]: 54822
Z-score [2]: -0.2335

CCSC(=N)Nc1ccc(C(F)(F)F)cc1.Cl [TFPI hydrochloride]
Raw Signal [1]: 53926
Z-score [2]: -0.4076

Cl.O=c1[nH]oc2c1CCNC2 [THIP hydrochloride]
Raw Signal [6]: 60339
Z-score [7]: 0.8384

CCN(CC)CCCCCCCCOC(=O)c1cc(OC)c(OC)c(OC)c1.Cl [TMB-8 hydrochloride]
Raw Signal [1]: 59541
Z-score [3]: 0.2867

CP(=O)(O)C1=CCNCC1 [TPMPA]
Raw Signal [6]: 59668
Z-score [7]: 0.708

C/C(=C\c1ccc(C(=O)O)cc1)c1ccc2c(c1)C(C)(C)CCC2(C)C [TTNPB]
Raw Signal [1]: 53849
Z-score [2]: -0.4225

CC/C(=C(\c1ccccc1)c1ccc(OCCN(C)C)cc1)c1ccccc1 [Tamoxifen citrate]
Raw Signal [6]: 60879
Z-score [7]: 0.9433

NCCS(=O)(=O)O [Taurine]
Raw Signal [4]: 52621
Z-score [5]: -0.6611

CC(=O)O[C@H]1C(=O)[C@@]2(C)[C@H]([C@H](OC(=O)c3ccccc3)[C@]3(O)C[C@H](OC(=O)[C@H](O)[C@@H](NC(=O)c4ccccc4)c4ccccc4)C(C)=C1C3(C)C)[C@]1(OC(C)=O)CO[C@@H]1C[C@@H]2O [Taxol]
Raw Signal [6]: 58493
Z-score [7]: 0.4797

Cc1scc2c1N(C(=O)CN1CCN(C)CC1)c1ccccc1NC2=O [Telenzepine dihydrochloride]
Raw Signal [6]: 58050
Z-score [7]: 0.3937

COc1cc2nc(N3CCN(C(=O)C4CCCO4)CC3)nc(N)c2cc1OC (stereo not shown) [Terazosin hydrochloride]
Raw Signal [1]: 54152
Z-score [2]: -0.3637

CC(C)(C)NCC(O)c1cc(O)cc(O)c1.CC(C)(C)NCC(O)c1cc(O)cc(O)c1.O=S(=O)(O)O (stereo not shown) [Terbutaline hemisulfate]
Raw Signal [6]: 59192
Z-score [7]: 0.6155

CC(C)(C)c1ccc(C(O)CCCN2CCC(C(O)(c3ccccc3)c3ccccc3)CC2)cc1 (stereo not shown) [Terfenadine]
Raw Signal [1]: 53926
Z-score [2]: -0.4076

CCCCNc1ccc(C(=O)OCCN(C)C)cc1 [Tetracaine hydrochloride]
Raw Signal [1]: 56522
Z-score [3]: 0.09679

CCCCCCCCCCCCCCSCC(=O)O [Tetradecylthioacetic acid]
Raw Signal [1]: 56618
Z-score [3]: 0.1154

CC[N+](CC)(CC)CC [Tetraethylammonium chloride]
Raw Signal: 56416
Z-score: 0.0762

CCN(CC)C(=S)SSC(=S)N(CC)CC [Tetraethylthiuram disulfide]
Raw Signal [1]: 54661
Z-score [2]: -0.2648

c1ccc2c(c1)CCCC2C1=NCCN1 (stereo not shown) [Tetrahydrozoline hydrochloride]
Raw Signal [1]: 57605
Z-score [3]: 0.3072

CC(C)NP(=O)(NC(C)C)OP(=O)(NC(C)C)NC(C)C [Tetraisopropyl pyrophosphoramide]
Raw Signal [1]: 57279
Z-score [3]: 0.2439

c1ccc(C2CN3CCSC3=N2)cc1 (stereo not shown) [Tetramisole hydrochloride]
Raw Signal [4]: 64300
Z-score [8]: 1.608

C/C=C(/C)C(=O)O[C@H]1C(C)=C2[C@H]([C@@H]1OC(=O)CCCCCCC)[C@@](C)(OC(C)=O)C[C@H](OC(=O)CCC)[C@@]1(O)[C@H]2OC(=O)[C@@]1(C)O [Thapsigargin]
Raw Signal [1]: 56574
Z-score [3]: 0.1069

Cn1cnc2c1c(=O)[nH]c(=O)n2C [Theobromine]
Raw Signal [4]: 52921
Z-score [5]: -0.6028
